Results as given in paper PMC5567253 (Scientific Reports, 2017).

Experiments:
MGC803 = test system: MGC803; design: method as in PMID 24098916; conditions: cited from earlier work
[1] = test system: E-cadherin mRNA in MDA-MB-231 cells; test: PCR analysis of E-cadherin mRNA; assay type: cell-based, human; conditions: 24 h
Procedure: (§1) Total RNA from MDA-MB-231 cells was isolated using TRIzol (Life Technologies, USA). RNA samples were quantified using a NanoDrop 3300 spectrophotometer (Thermo Scientific, NanoDrop Products, Wilmington, DE, USA). Synthesis of cDNA was performed using a RevertAid First Strand cDNA Synthesis kit per manufacturer’s protocols (Thermo Scientific, USA). The reaction mixtures were heated at 95 °C for 10 min, followed by 30 cycles at 94 °C for 30 s, 58 °C for 30 s, 72 °C for 20 s, and a final extension at 72 °C for 5 min. Subsequently, PCR products were electrophoresed in a 1.5% agarose gel and scanned using a gel/fluorescence image analysis system. GAPDH was selected as a loading control to standardize the amount of cDNA from each sample.

[2] = test system: MDA-MB-231 xenografted tumours; test: Mouse xenograft model, anti-tumour effect in vivo; design: species or system BALB/c nude mice
Procedure: Female BALB/c nude mice (18 ± 2 g) were purchased from Institute of Laboratory Animal Sciences, Peking Union Medical College (Beijing, China). […] The tumour length and width were measured using callipers and the tumour volume was calculated twice weekly. The body weight of mice was determined at least twice weekly during the study period.

MDA-MB-231 cells [3] = test: Scratch-wound (wound healing) migration assay; assay type: cell-based; conditions: Homo sapiens, 20 h
Procedure: Cell invasion and migration were measured using Transwell and wound healing assays, respectively. For Transwell assays, 2 × 10^4 cells were suspended in serum-free media and seeded in the top chamber of Matrigel-coated invasion inserts (Corning life science, Corning, NY). BHX was then added to the top chambers. DMEM containing 10% FBS was added to the lower chamber as a chemoattractant. After 24 h incubation, the non-invading cells on the upper surface of the membrane were wiped away, and the invading cells on the lower surface of the membrane were fixed using 95% ethanol and stained with 0.1% crystal violet. Images were captured at ×200 magnification using an inverted phase contrast microscope (BX61, Olympus, Japan). In parallel, cells were treated identically in 24-well plate. These cells were harvested, stained with 0.1% crystal violet, and counted. The number of cells that had invaded was normalized for effects on cell viability. For wound healing assays, cells were seeded at 2 × 10^5 cells/well in 24-well culture plates and allowed to reach confluence. […] Images of the scratches were recorded at ×40 magnification using a phase contrast microscope (EVOS, AMG, USA) at 0 and 20 h. The areas between leading edges were measured using Image J software, after which the rates of wound healing were calculated.

[4] = test system: β-catenin mRNA in MDA-MB-231 cells; test: PCR analysis of β-catenin mRNA; assay type: cell-based, human; conditions: 24 h
Procedure: as §1

[5] = test system: E-cadherin protein in MDA-MB-231 cells; test: Western blotting of E-cadherin; assay type: cell-based, human; conditions: western blot
Procedure: (§2) Total cell lysates were obtained by lysing the cells in SDS lysis buffer containing a protease inhibitor (PMSF), and protein concentrations were determined using a BCA protein assay kit. The proteins were separated by SDS-PAGE and transferred to PVDF membranes. The membranes were incubated with primary antibodies against Snail, Vimentin, β-catenin, and E-cadherin (1:1000 dilution) overnight at 4 °C, rinsed with TBST, and incubated with IRDye-conjugated anti-rabbit or anti-mouse IgG secondary antibodies (1:1000, LI-COR Biosciences). A β-actin-specific monoclonal antibody (1:1000 dilution) was used as a loading control. Bands were visualized with an Odyssey LI-COR infrared imaging system (LI-COR, Lincoln, NE).

[6] = test system: vimentin protein in MDA-MB-231 cells; test: Western blotting of vimentin; assay type: cell-based, human; conditions: western blot
Procedure: as §2

[7] = test system: β-catenin protein in MDA-MB-231 cells; test: Western blotting of β-catenin; assay type: cell-based, human
Procedure: as §2

MDA-MB-231 cells [8] = test: Detection of apoptosis (annexin V/PI flow cytometry); assay type: cell-based, human; conditions: 24 h
Procedure: Flow cytometry was performed using PI and FITC-labelled annexin V (BD Pharmingen, CA, USA) staining according to the manufacturer’s protocol. […] After incubation at room temperature in the dark for 15 min, 400 μl of binding buffer (1×) was added. The samples were analysed within 1 h by flow cytometry (FACSCanto II, BD, San Jose, CA).

A549 = test system: A549; design: method as in PMID 24098916; conditions: cited from earlier work
[9] = In vivo pharmacokinetics in rat plasma (UPLC-MS/MS, NCA); design: species or system Sprague-Dawley (SD) rats; conditions: intraperitoneal
Procedure: Male Sprague-Dawley (SD) rats (250 ± 50 g body weight) were purchased from Institute of Laboratory Animal Sciences, Peking Union Medical College (Beijing, China). Rats were housed in a light-controlled room at 25 ± 2 °C and 55 ± 5% relative humidity, at the Animal Center of Tianjin Medical University Cancer Institute and Hospital (Tianjin, China). Animals received a standard diet and water ad libitum. […] At 0, 10, 20, 30, 40 min, 1, 2, 3, 4, 6, 8, 10, 12, and 24 h post injection, blood samples were collected into heparinized glass tubes by direct venipuncture. Plasma was prepared from the blood by centrifugation at 13,000 rpm for 10 min at 4 °C and stored at −80 °C until further analysis.
An ACQUITY™ ultra-performance liquid chromatography system connected to a Xevo triple quadrupole mass spectrometry system (Waters, MA, USA) equipped with an electrospray ionization (ESI) source was used in this study. Aliquots (50 μl) of plasma was vortex-mixed with methanol (400 μl) containing diazepam (internal standard, 200 ng/ml concentration) for 2 min and then centrifuged at 13,000 rpm at 4 °C for 10 min. Then, 400 μl of supernatant was transferred to a clean centrifuge tube and dried with an N2 gas stream. Samples were reconstituted with 100 μl methanol/H2O (50/50, v/v). The injection volume of the assay was 5 μl. The mobile phase (MP) was composed of MPA (acetonitrile) and MPB (5 mM ammonium formate with 0.1% formic acid in water), and the flow rate was maintained at 0.3 ml/min. […] A switching valve directed the flow eluting between 1.0–2.5 min into a mass spectrometer, and the remainder to a waste container. BHX and diazepam were ionized with ESI in the positive mode and fragmented with collision gas for analysis using multiple reaction monitoring (MRM). The ESI source settings for the analysis were as follows: 350 °C gas temperature; 650 L/h desolvation; 50 L/h cone; 2.5 kV capillary voltage. […] The data acquisition and processing were done using MassLynx Mass Spectrometry software, version 4.1 (Waters, MA, USA). The dwell time was 400 ms for all ion transitions monitored.

In the case of O=C(NCc1ccc(O)cc1)C1C(c2ccccc2)C(c2ccccc2)=NN1c1ccccc1 (centres unmarked) [BHX], the cytotoxic effects (MGC803) is given as “exhibits cytotoxic effects”, the “increase of E-cadherin mRNA levels compared to control” value (“increase of E-cadherin mRNA levels” below) ([1]; 5 μM) is given as 1.39 fold and the “increase of E-cadherin mRNA levels” value ([1]; 10 μM) is given as 1.65 fold. The “increase of E-cadherin mRNA levels” value ([1]; 20 μM) was 2.06 fold, the average tumour volume ([2]; 100 mg/kg for 21 days, vehicle 1179 ± 128 mm^3) was 754 ± 96 mm^3 and the “tumour size compared to control group” value ([2]; 100, 200 mg/kg, daily intraperitoneal, 21 days, p < 0.01) was “significant decrease in tumour size”. For the same molecule, the “body weight of treated mice” value ([2]; 21 days treatment, p > 0.05) was “no significant loss of body weight”, the “bioluminescent intensity of tumours” value ([2]; 21 days, dose not stated, control 8.90 ± 0.74 × 10^7) was 6.13 ± 0.52 × 10^7 p/sec/cm^2/sr and the inhibition at 5 µM (MDA-MB-231 cells [3]; 5 μM) was 34.4 ± 1.06%. For the same molecule, the inhibition at 10 µM (MDA-MB-231 cells [3]; 10 μM) was 71 ± 1.65%, the inhibition at 20 µM (MDA-MB-231 cells [3]; 20 μM) was 90.32 ± 0.68% and the “decrease of β-catenin mRNA levels” value ([4]; 5 μM) was 4.61%. The “decrease of β-catenin mRNA levels” value ([4]; 10 μM) was 25.73%, the “decrease of β-catenin mRNA levels” value ([4]; 20 μM) was 33.19% and the E-cadherin protein level [5] was “up-regulating the protein and mRNA levels of E-cadherin”. The vimentin protein expression [6] was “down-regulating Snail and vimentin expression in a dose-dependent manner”, the “β-catenin expression by western blotting” value [7] was “suppressed β-catenin expression in a concentration-dependent manner” and the “early apoptotic cells vs vehicle” value (MDA-MB-231 cells [8]) was “increased the percentage of early apoptotic cells”. The cytotoxic effects (A549) was “exhibits cytotoxic effects”, the CL ([9]; 50 μg/kg) was 0.467 ± 0.1 mL/min/kg and the Vd ([9]; 50 μg/kg) was 0.192 ± 0.047 L/kg. For the same molecule, the t1/2 ([9]; 50 μg/kg) was 4.82 ± 0.93 h, the CL ([9]; 100 μg/kg) was 0.717 ± 0.12 mL/min/kg and the Vd ([9]; 100 μg/kg) was 0.253 ± 0.062 L/kg. The Cmax ([9]; male, Sprague-Dawley, plasma, ip, 50 ug/kg) was 325 ± 55.1 ng/mL and the MRT last ([9]; male, Sprague-Dawley, plasma, ip, 50 ug/kg, 50 μg/kg, read-out: MRT0-t) was 6.8 ± 1.25 h.
